Experimental data reported in patent publication US11414384B2, “P300/CBP hat inhibitors” (Constellation Pharmaceuticals, Inc., priority 2018, dated 2022).

Molecular target: p300 HAT domain (residues 1287-1666) (Homo sapiens (Human), UniProt Q09472)
Assay: p300 HAT SPA assay (scintillation proximity assay, acetylation of biotinylated H3(1-21) peptide)
Format: biochemical
Details: p300 HAT domain; average of at least 2 replicate titrations; read-out: P300 HAT SPA IC50
Protocol: In a typical experiment the p300 HAT inhibitory activity of the compounds described herein was determined in accordance with the following experimental method.
The expressed protein was purified by Ni2+ affinity, followed by anion exchange chromatography. Appropriate fractions were pooled and buffer exchanged into 20 mM Hepes pH 7.5, 150 mM NaCl, and 1 mM TCEP.
35 μL of the reaction volume was transferred to a 384-well streptavidin FlashPlate (PerkinElmer) using a Bravo liquid handler (Velocity 11) and incubated for 1.5 hr at RT. […] Data were analyzed in Genedata to determine inhibitor IC50 values.

Sequence of p300 HAT domain (residues 1287-1666) (Q09472 1287-1666): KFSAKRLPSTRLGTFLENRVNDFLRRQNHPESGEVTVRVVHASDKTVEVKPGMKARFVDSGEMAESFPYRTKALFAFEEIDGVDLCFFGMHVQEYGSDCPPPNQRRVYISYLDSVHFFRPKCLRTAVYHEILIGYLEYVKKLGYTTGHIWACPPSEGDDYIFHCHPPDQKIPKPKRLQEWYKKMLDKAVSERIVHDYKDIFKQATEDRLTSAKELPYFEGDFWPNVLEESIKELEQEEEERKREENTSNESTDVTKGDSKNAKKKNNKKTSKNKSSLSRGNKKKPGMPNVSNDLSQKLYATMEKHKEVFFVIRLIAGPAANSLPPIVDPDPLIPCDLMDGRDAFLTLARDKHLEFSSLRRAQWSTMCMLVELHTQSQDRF

Row | SMILES | IC50 [µM]
1 | Cc1ccc2c(C(=O)C(NCCc3ccc(S(N)(=O)=O)cc3)c3ccccc3)c[nH]c2c1 (single isomer, unassigned) [56 Isomer 1] | > 60
2 | O=C(c1c[nH]c2ccccc12)C(NCCc1ccc(-c2c[nH]nn2)cc1)c1ccccc1 (single isomer, unassigned) [57 Isomer 1] | > 5
3 | O=C(c1c[nH]c2ccccc12)C(NCCc1ccc(-c2c[nH]nn2)cc1)c1ccccc1 (single isomer, unassigned) [57 Isomer 2] | 0.287
4 | N#Cc1ccc(CCNC(C(=O)c2c[nH]c3ccccc23)c2ccccc2)cc1 (single isomer, unassigned) [58 Isomer 1] | 25.3
5 | CCC(CNC(C(=O)c1c[nH]c2ccccc12)c1ccccc1)c1ccc(Cl)cc1 (single isomer, unassigned) [59 Isomer 1] | > 30
6 | O=C(c1c[nH]c2cc(OCc3ccccc3)ccc12)C(NCCc1ccc(F)cc1)c1ccccc1 (single isomer, unassigned) [61 Isomer 1] | > 30
7 | CN1CCC(c2ccc3c(C(=O)C(NCCc4ccc(C#N)cc4)c4ccccc4)c[nH]c3c2)CC1 (single isomer, unassigned) [64 Isomer 1] | 0.097
8 | CN1CCC(c2ccc3c(C(=O)C(NCCc4ccc(C#N)cc4)c4ccccc4)c[nH]c3c2)CC1 (single isomer, unassigned) [64 Isomer 2] | 0.08
9 | CNC(=O)c1ccc2c(C(=O)C(NCCc3ccc(C#N)cc3)c3ccccc3)c[nH]c2n1 (single isomer, unassigned) [67 Isomer 1] | 2.36
10 | CNC(=O)c1ccc2c(C(=O)C(NCCc3ccc(C#N)cc3)c3ccccc3)c[nH]c2n1 (single isomer, unassigned) [67 Isomer 2] | > 5
11 | Cc1cccc2c(C(=O)C(NC(C)Cc3ccc(Cl)cc3Cl)c3ccccc3)c[nH]c12 (single isomer, unassigned) [68 Isomer 2] | > 30
12 | Cc1cccc2c(C(=O)C(NC(C)Cc3ccc(Cl)cc3Cl)c3ccccc3)c[nH]c12 (single isomer, unassigned) [68 Isomer 3] | > 30
13 | Cc1cccc2c(C(=O)C(NC(C)Cc3ccc(Cl)cc3Cl)c3ccccc3)c[nH]c12 (single isomer, unassigned) [68 Isomer 4] | > 30
14 | CCNC(=O)c1ccc2c(C(=O)C(NCC(C)c3ccc(C#N)cc3)c3ccccc3)cnn2c1 (single isomer, unassigned) [69 Isomer 1] | 0.188
15 | CCNC(=O)c1ccc2c(C(=O)C(NCC(C)c3ccc(C#N)cc3)c3ccccc3)cnn2c1 (single isomer, unassigned) [69 Isomer 2] | 2.87
16 | CCNC(=O)c1ccc2c(C(=O)C(NCC(C)c3ccc(C#N)cc3)c3ccccc3)cnn2c1 (single isomer, unassigned) [69 Isomer 3] | > 5
17 | CC(CNC(C(=O)c1cnn2cc(C(=O)NC[C@@H](C)O)ccc12)c1ccccc1)c1ccc(C#N)cc1 (single isomer, unassigned) [70 Isomer 1] | > 2
18 | CC(CNC(C(=O)c1cnn2cc(C(=O)NC[C@@H](C)O)ccc12)c1ccccc1)c1ccc(C#N)cc1 (single isomer, unassigned) [70 Isomer 2] | 0.0643
19 | CC(CNC(C(=O)c1cnn2cc(C(=O)NC[C@@H](C)O)ccc12)c1ccccc1)c1ccc(C#N)cc1 (single isomer, unassigned) [70 Isomer 3] | 0.747
20 | CC(CNC(C(=O)c1cnn2cc(C(=O)NC[C@@H](C)O)ccc12)c1ccccc1)c1ccc(C#N)cc1 (single isomer, unassigned) [70 Isomer 4] | 0.0218
21 | CCNC(=O)c1ccc2c(C(=O)C(NCCc3ccc(C#N)cc3Cl)c3ccccc3)c[nH]c2c1 (single isomer, unassigned) [71 Isomer 1] | > 2
22 | CCNC(=O)c1ccc2c(C(=O)C(NCCc3ccc(C#N)cc3Cl)c3ccccc3)c[nH]c2c1 (single isomer, unassigned) [71 Isomer 2] | 0.0177
23 | CCNC(=O)c1ccc2c(C(=O)C(NCCc3ccc(C#N)cc3)c3ccccc3)cnn2c1 (single isomer, unassigned) [73 Isomer 1] | 0.286
24 | CCNC(=O)c1ccc2c(C(=O)C(NCCc3ccc(C#N)cc3)c3ccccc3)cnn2c1 (single isomer, unassigned) [73 Isomer 2] | 0.954
25 | CCNC(=O)c1ccc2c(C(=O)C(NCC(C)c3ccc(C#N)cc3)c3ccccc3)c[nH]c2c1 (single isomer, unassigned) [75 Isomer 1] | 0.718
26 | CCNC(=O)c1ccc2c(C(=O)C(NCC(C)c3ccc(C#N)cc3)c3ccccc3)c[nH]c2c1 (single isomer, unassigned) [75 Isomer 2] | 0.343
27 | CCNC(=O)c1ccc2c(C(=O)C(NCC(C)c3ccc(C#N)cc3)c3ccccc3)c[nH]c2c1 (single isomer, unassigned) [75 Isomer 3] | 0.447
28 | CCNC(=O)c1ccc2c(C(=O)C(C)NCCc3ccc(C#N)cc3)c[nH]c2c1 (single isomer, unassigned) [76 Isomer 1] | > 5
29 | CCNC(=O)c1ccc2c(C(=O)C(C)NCCc3ccc(C#N)cc3)c[nH]c2c1 (single isomer, unassigned) [76 Isomer 2] | > 5
30 | COc1ccc(CCNC(C(=O)c2c[nH]c3c(C)cccc23)c2ccccc2)cc1 (single isomer, unassigned) [80 Isomer 1] | 2.48

The remaining lines, values ahead:

Row | IC50 [µM] | SMILES
31 | 13.8 | CCC(CNC(C(=O)c1c[nH]c2ccccc12)c1ccccc1)c1ccc(Cl)cc1 (single isomer, unassigned) [59 Isomer 2]
32 | > 30 | CCC(CNC(C(=O)c1c[nH]c2ccccc12)c1ccccc1)c1ccc(Cl)cc1 (single isomer, unassigned) [59 Isomer 3]
33 | 27.8 | COc1ccc2c(C(=O)C(NCCc3ccc(Cl)cc3)c3ccccc3)c[nH]c2c1 (single isomer, unassigned) [60 Isomer 1]
34 | > 30 | CC(=O)N1CCC(c2ccc3c(C(=O)C(NCCc4ccc(Cl)cc4)c4ccccc4)c[nH]c3c2)CC1 (single isomer, unassigned) [65 Isomer 1]
35 | 0.96 | Cn1cc(-c2ccc3c(C(=O)C(NCCc4ccc(S(N)(=O)=O)cc4)c4ccccc4)c[nH]c3c2)cn1 (single isomer, unassigned) [66 Isomer 1]
36 | 0.733 | Cn1cc(-c2ccc3c(C(=O)C(NCCc4ccc(C#N)cc4Cl)c4ccccc4)c[nH]c3c2)cn1 (single isomer, unassigned) [72 Isomer 1]
37 | 0.0424 | Cn1cc(-c2ccc3c(C(=O)C(NCCc4ccc(C#N)cc4Cl)c4ccccc4)c[nH]c3c2)cn1 (single isomer, unassigned) [72 Isomer 2]
38 | 0.154 | O=C(c1c[nH]c2cc(N3CCCC3=O)ccc12)C(NCCc1ccc(Cl)cc1)c1ccccc1 (single isomer, unassigned) [74 Isomer 1]
39 | 0.16 | O=C(c1c[nH]c2cc(N3CCCC3=O)ccc12)C(NCCc1ccc(Cl)cc1)c1ccccc1 (single isomer, unassigned) [74 Isomer 2]
40 | 12.9 | Cn1cc(-c2ccc3c(C(=O)C(NCCc4ccc(F)cc4)c4ccccc4)c[nH]c3c2)cn1 (single isomer, unassigned) [78 Isomer 1]
41 | 12.3 | O=C(c1c[nH]c2cc(-c3cccnc3)ccc12)C(NCCc1ccc(F)cc1)c1ccccc1 (single isomer, unassigned) [81 Isomer 1]
42 | 1.31 | Cn1cc(-c2ccc3c(C(=O)C(NCCc4ccc(Cl)cc4)c4ccccc4)c[nH]c3c2)cn1 (single isomer, unassigned) [83 Isomer 1]
43 | > 30 | Cn1cc(-c2ccc3c(C(=O)C(NCCc4ccc(F)cc4F)c4ccccc4)c[nH]c3c2)cn1 (single isomer, unassigned) [85 Isomer 1]
44 | 28.1 | CCn1cc(-c2ccc3c(C(=O)C(NCCc4ccc(Cl)cc4)c4ccccc4)c[nH]c3c2)cn1 (single isomer, unassigned) [86 Isomer 1]
45 | 1.39 | CNC(=O)Cn1cc(-c2ccc3c(C(=O)C(NCCc4ccc(Cl)cc4)c4ccccc4)c[nH]c3c2)cn1 (single isomer, unassigned) [87 Isomer 1]
46 | > 30 | Cc1ccc(-c2ccc3c(C(=O)C(NCCc4ccc(Cl)cc4)c4ccccc4)c[nH]c3c2)cn1 (single isomer, unassigned) [88 Isomer 1]
47 | 27.2 | O=C(c1c[nH]c2cc(-c3ccncc3)ccc12)C(NCCc1ccc(Cl)cc1)c1ccccc1 (single isomer, unassigned) [89 Isomer 1]
48 | 0.966 | O=C(c1c[nH]c2cc(-c3ccncc3)ccc12)C(NCCc1ccc(Cl)cc1)c1ccccc1 (single isomer, unassigned) [89 Isomer 2]
49 | 0.967 | O=C(c1c[nH]c2cc(-c3cccnc3)ccc12)C(NCCc1ccc(Cl)cc1)c1ccccc1 (single isomer, unassigned) [90 Isomer 1]
50 | 3.73 | CC(CNC(C(=O)c1c[nH]c2cc(-c3cnn(C)c3)ccc12)c1ccccc1)c1ccc(Cl)cc1 (single isomer, unassigned) [91 Isomer 1]
51 | > 30 | CC(CNC(C(=O)c1c[nH]c2cc(-c3cnn(C)c3)ccc12)c1ccccc1)c1ccc(Cl)cc1 (single isomer, unassigned) [91 Isomer 2]
52 | 6.44 | CC(CNC(C(=O)c1c[nH]c2cc(-c3cnn(C)c3)ccc12)c1ccccc1)c1ccc(Cl)cc1 (single isomer, unassigned) [91 Isomer 3]
53 | 0.134 | CC(CNC(C(=O)c1c[nH]c2cc(-c3cnn(C)c3)ccc12)c1ccccc1)c1ccc(Cl)cc1 (single isomer, unassigned) [91 Isomer 4]
54 | 2.1 | CC(Cc1ccc(Cl)cc1)NC(C(=O)c1c[nH]c2cc(-c3cnn(C)c3)ccc12)c1ccccc1 (single isomer, unassigned) [92 Isomer 1]
55 | > 30 | CC(Cc1ccc(Cl)cc1)NC(C(=O)c1c[nH]c2cc(-c3cnn(C)c3)ccc12)c1ccccc1 (single isomer, unassigned) [92 Isomer 2]
